For orientation: Kd means the free concentration of one partner at which half of the binding sites on the other are occupied at equilibrium, for simple one-to-one binding. Higher therefore signals lower affinity.

SMILES strings stand for the structures.

The target in assay [1] is pVHL19 (VCB complex: VHL with Elongin B and Elongin C) (Homo sapiens, UniProt P40337). Kind of assay: ITC titration against VCB, short VHL isoform. The class given is binding. The following applies: for Kd / ΔG / ΔH / α (cooperativity/avidity) / −TΔS / n (stoichiometry): ITC; for Kd / ΔG / ΔH / α (cooperativity/avidity) / −TΔS: pVHL19; for n (stoichiometry): pVHL19, 25° C.; for binding to VCB detected by ITC: ITC against VCB. The protocol: Titrations were performed on an ITC200 micro-calorimeter (GE Healthcare). […] The final DMSO concentration was 0.15% v/v. VBC protein experiments were carried out in a buffer containing 20 mM Bis-tris propane, 150 mM NaCl, 1 mM TCEP, 0.15% v/v DMSO, pH 7.4. The titrations consisted of 19 injections of 2 μL compounds solution (150 μM, in the syringe) at a rate of 2 s/μL at 120 s time intervals into the VCB protein solution (20 μM, in the cell). An initial injection of compound solution (0.4 μL) was made and discarded during data analysis. All experiments were performed at 25° C., whilst stirring the syringe at 600 rpm. The data were fitted to a single binding site model to obtain the stoichiometry n, the dissociation constant Kd and the enthalpy of binding ΔH using the Microcal LLC ITC200 Origin software provided by the manufacturer.
Chain of pVHL19 (VCB complex: VHL with Elongin B and Elongin C) (P40337 54-213): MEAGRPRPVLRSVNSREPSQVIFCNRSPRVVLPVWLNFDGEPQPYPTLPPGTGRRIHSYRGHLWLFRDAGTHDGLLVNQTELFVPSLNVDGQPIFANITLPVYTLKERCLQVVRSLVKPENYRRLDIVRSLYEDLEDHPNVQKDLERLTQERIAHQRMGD
Chain of pVHL19 (VCB complex: VHL with Elongin B and Elongin C) (Q15370 1-104 partner limits assumed): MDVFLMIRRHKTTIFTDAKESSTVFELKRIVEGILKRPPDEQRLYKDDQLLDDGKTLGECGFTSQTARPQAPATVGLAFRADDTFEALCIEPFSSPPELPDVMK
Chain of pVHL19 (VCB complex: VHL with Elongin B and Elongin C) (Q15369 17-112 partner limits assumed): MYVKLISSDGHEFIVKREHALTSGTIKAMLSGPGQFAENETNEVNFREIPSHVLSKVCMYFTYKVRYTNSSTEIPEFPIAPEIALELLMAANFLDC
In general terms: In ITC the heat of successive injections is recorded.

The test system of assay [2] is HIF-1α / hydroxylated HIF-1α (Hdy-HIF-1α). Kind of assay: Western blot of HIF-1α and Hdy-HIF-1α levels in HeLa cells. The class given is cell-based, Human. How it is done:
(§1) For single time point treatment experiments, cells were transferred in 6-well plates with 5×10^5 cells per well in 2 ml media in order to achieve 80% confluence the following day. Stock concentrations of compounds were prepared by solubilizing the powder in 100% v/v DMSO to the final desired stock concentration.
(§2) On the day of treatment, all compound samples were prepared as 100-fold concentrated compound solution using DMEM just before treatment. The experiment samples (20 μL) were added to the 6 well plate containing 2 ml of media. The final DMSO concentration was 0.1% v/v. Cells were incubated at 37° C. and 5% CO2 for the desired time before harvesting.
(§3) For time dependent treatment, cells were transferred in 6-well plates with 3×10^5 cells per well in 2 ml media. Samples were prepared as detailed above or the single time point experiments. Treatment was conducted at given time points prior to harvest.
(§4) Cells were lysed in lysis buffer (20 mM Tris pH 8, 150 mM NaCl, 1% Triton x100) and a protease inhibitor cocktail (Roche) per 10 ml buffer. For protein extracts, the dishes were placed on ice. The media was aspirated and the tissue layer washed twice with ice-cold phosphate buffer saline (PBS). Lysis buffer (120 μl) was added and the cells detached from the surface with a cell scraper. After removal of the insoluble fraction by centrifugation, the protein concentration of the supernatant was determined by Pierce™ Coomassie (Bradford) Protein Assay Kit. Protein extracts were fractionated by SDS-PAGE on 4-12% Tris-Acetate NuPage® Novex® (Life Technologies) polyacrylamide gels and transferred to a nitrocellulose membrane using wet transfer. The membrane was then blocked with 5% w/v Bovine serum albumin (BSA) in Tris-buffered saline (TBS) with 0.1% w/v Tween-20. For detecting proteins the following primary antibodies in the given concentrations were used: anti-β-Actin (Cell Signaling Technology, 4970S, 13E5) 1:2000, anti-VHL (Cell Signaling Technology, #68547) 1:1000, anti-Hif-1α (BD Biosciences, 610959, clone 54) 1:1000, anti-hydroxy-HIF-1α (Hyp564) (Cell Signaling Techonology; #3434) 1:1000, anti-PHD2 (Bethyl Laboratories; A300-322A) 1:1000, anti-PHD3 (Bethyl Laboratories; A300-327A) 1:1000, anti-CRBN (Proteintech; 11435-1-AP) 1:1000.
(§5) Following incubation with a horseradish peroxidase-conjugated secondary antibody (Cell Signaling Technology), the signal was developed using enhanced chemiluminescence (ECL) Western Blotting Detection Kit (Amersham) on Amersham Hyperfilm ECL film (Amersham).
Band quantification was performed using ImageJ software and reported as relative amount as ratio of the each protein band relative to the lane's loading control. The values obtained were then normalized to 0.1% DMSO vehicle control.

Assay [3] deals with T1, pVHL30 (long isoform of VHL) (Homo sapiens, UniProt P40337).
T1 construct: endogenous in cells; host or cells: HeLa
T1 sequence (P40337 whole entry, canonical isoform): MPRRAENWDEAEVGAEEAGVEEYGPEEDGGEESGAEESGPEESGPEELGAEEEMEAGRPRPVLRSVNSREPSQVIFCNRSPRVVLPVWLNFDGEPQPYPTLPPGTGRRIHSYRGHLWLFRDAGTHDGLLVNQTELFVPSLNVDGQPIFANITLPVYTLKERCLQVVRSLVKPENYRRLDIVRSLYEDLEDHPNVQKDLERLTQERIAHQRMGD
Kind of assay: Western blot of VHL levels in HeLa cells. The following applies: 1 μM, 10 h. The class given is cell-based. How it is done:
as §1, §2, §3
Cells were transferred in 6-well plates with 5×10^5 cells per well in 2 ml media in order to achieve 80% confluence the day after. At t=0, MLN4924 was added into the desired wells at 3 μM final concentration and 0.1% v/v of DMSO. DMSO (0.1% v/v final conc.) was added to the remaining wells in order to match identical conc. of vehicle in all wells. At t=3 h, MG 132 was added into the desired wells at 50 μM final conc. and 0.1% v/v of DMSO. DMSO (0.1% v/v final conc.) was added to the remaining wells in order to achieve the same conc. of vehicle in all the wells. […] DMSO (0.1% v/v final conc.) was added to the remaining wells in order to obtain the same conc. of vehicle in all the wells. The total final concentration of DMSO was therefore 0.3% v/v. Plates were incubated for 4 h at 37° C. and 5% CO2 before harvesting.
Cells were transferred in 6-well plates with 5×10^5 cells per well in 2 ml media in order to achieve 80% confluence the day after. […] Plates were incubated for the desired time at 37° C. and 5% CO2 before harvesting.
For this experiments, cells were transferred in 6-well plates with 5×10^5 cells per well in 2 ml media in order to achieve 80% confluence the day after. […] Plates were incubated for the desired time at 37° C. and 5% CO2 before harvesting.
as §4, §5
Band quantification was performed using ImageJ software and reported as relative amount as ratio of the each protein band relative to the lane's loading control. […]
(A western blot detects proteins with antibodies after separation by electrophoresis.)

Another assay deals with VCB complex (Homo sapiens, UniProt P40337). Briefly: Size exclusion chromatography of VCB complex formation. The class given is binding. The following applies: SEC, VCB 50 μM, compound 30 μM. How it is done: SEC experiments were carried out in a AKTA pure system (GE Healthcare) at room temperature. The oligomeric state of the VCB complex in solution was analyzed by gel filtration in a buffer containing 20 mM Bis-Tris (pH 7), 150 mM NaCl and 1 mM 1,4-dithiothreitol (DTT) using a Superdex 200 Increase 10/300 GL column (GE Healthcare) calibrated with globular proteins of known molecular weight (GE Healthcare, 28-4038-41/42). […] Sample volume for each injection was 200 μL, and the flow rate was 0.5 mL/min. Peak elution was monitored using ultraviolet absorbance at 280 nm.
Chain of VCB complex (P40337 54-213 limits assumed): as the sequence (P40337 54-213) above
Chain of VCB complex (Q15370 1-104 partner limits assumed): as the sequence (Q15370 1-104 partner limits assumed) above
Chain of VCB complex (Q15369 17-112 partner limits assumed): as the sequence (Q15369 17-112 partner limits assumed) above

For the compound `Cc1ncsc1-c1ccc(CNC(=O)[C@@H]2C[C@@H](O)CN2C(=O)[C@@H](NC(=O)COCCOCCOCCOCCOCCOc2cc(-c3scnc3C)ccc2CNC(=O)[C@@H]2C[C@@H](O)CN2C(=O)[C@@H](NC(=O)C2(C#N)CC2)C(C)(C)C)C(C)(C)C)cc1` [CMP113, (2S,4R)-1-((S)-2-(tert-butyl)-20-(2-(((2S,4R)-1-((S)-2-(1-cyanocyclopropane-1-carboxamido)-3,3-dimethylbutanoyl)-4-hydroxypyrrolidine-2-carboxamido)methyl)-5-(4-methylthiazol-5-yl)phenoxy)-4-oxo-6,9,12,15,18-pentaoxa-3-azaicosanoyl)-4-hydroxy-N-(4-(4-methylthiazol-5-yl)benzyl)pyrrolidine-2-carboxamide], in assay [1], binding was characterised by a dissociation constant (Kd) of 0.117 ± 0.025 µM, the ΔG is -9.5 kcal/mol, the ΔH is -6.4 ± 0.2 kcal/mol and the “α (cooperativity/avidity)” value is on record as 1.7. Further, in assay [1], the “−TΔS” value is -3.1 kcal/mol and the “n (stoichiometry)” value came to 0.934 ± 0.005.
Turning to `CC(=O)N[C@H](C(=O)N1C[C@H](O)C[C@H]1C(=O)NCc1ccc(-c2scnc2C)cc1OCCOCCOCCOCCOCCOCC(=O)N[C@H](C(=O)N1C[C@H](O)C[C@H]1C(=O)NCc1ccc(-c2scnc2C)cc1)C(C)(C)C)C(C)(C)C` [CMP112, (2S,4R)-1-((S)-2-acetamido-3,3-dimethylbutanoyl)-4-hydroxy-N-(2-(((S)-19-((2S,4R)-4-hydroxy-2-((4-(4-methylthiazol-5-yl)benzyl)carbamoyl)pyrrolidine-1-carbonyl)-20,20-dimethyl-17-oxo-3,6,9,12,15-pentaoxa-18-azahenicosyl)oxy)-4-(4-methylthiazol-5-yl)benzyl)pyrrolidine-2-carboxamide], in assay [1], the Kd was 0.235 ± 0.022 µM, the ΔG is -9.1 kcal/mol, the ΔH was -14.8 ± 0.2 kcal/mol and the “α (cooperativity/avidity)” value was determined as 0.8. Besides, in assay [1], the “−TΔS” value is given as 5.8 kcal/mol and the “n (stoichiometry)” value came to 0.498 ± 0.006.
In the case of `CC(=O)N[C@H](C(=O)N1C[C@H](O)C[C@H]1C(=O)NCc1ccc(-c2scnc2C)cc1OCCOCCOCCOCCOCCOc1cc(-c2scnc2C)ccc1CNC(=O)[C@@H]1C[C@@H](O)CN1C(=O)[C@@H](NC(C)=O)C(C)(C)C)C(C)(C)C` [CMP106, (2S,2′S,4R,4′R)—N,N′-((((3,6,9,12-tetraoxatetradecane-1,14-diyl)bis(oxy))bis(4-(4-methylthiazol-5-yl)-2,1-phenylene))bis(methylene))bis(1-((S)-2-acetamido-3,3-dimethylbutanoyl)-4-hydroxypyrrolidine-2-carboxamide)], in assay [1], the Kd amounted to 0.111 ± 0.008 µM, the ΔG is -9.5 kcal/mol, the ΔH was -12.6 ± 0.1 kcal/mol and the “α (cooperativity/avidity)” value was 1.7. In addition, in assay [1], the “−TΔS” value worked out at 3.1 kcal/mol and the “n (stoichiometry)” value was determined as 0.535 ± 0.004.
Turning to `CC(=O)N[C@H](C(=O)N1C[C@H](O)C[C@H]1C(=O)NCc1ccc(-c2scnc2C)cc1)C(C)(C)C` [VH032, reference compound], the “protein levels of Hdy-HIF-1α” value in assay [2] (HeLa, 1 μM, 10 h) is recorded as “completely ineffective”. Also, in assay [2] (cells), the “concentration at which active in cells” value is about 100 µM.
Take `Cc1ncsc1-c1ccc(CNC(=O)[C@@H]2C[C@H](O)CN2C(=O)[C@@H](NC(=O)COCCOCCOCCOCCOCCOCC(=O)N[C@H](C(=O)N2C[C@@H](O)C[C@H]2C(=O)NCc2ccc(-c3scnc3C)cc2)C(C)(C)C)C(C)(C)C)cc1` [CMP98, N^1,N^20-bis((S)-1-((2S,4S)-4-hydroxy-2-((4-(4-methylthiazol-5-yl)benzyl)carbamoyl)pyrrolidin-1-yl)-3,3-dimethyl-1-oxobutan-2-yl)-3,6,9,12,15,18-hexaoxaicosanediamide]: in assay [3], the “depletion/degradation of VHL (pVHL30)” value was “unable to induce degradation of VHL”. Besides, the “binding to VCB detected by ITC” value in assay [1] was “binding was not detected”. In addition, the “shift of VCB peak / ternary complex formation” value at VCB complex is “no shift”.
Regarding `Cc1ncsc1-c1ccc(CNC(=O)[C@@H]2C[C@@H](O)CN2C(=O)[C@@H](NC(=O)C2(C#N)CC2)C(C)(C)C)c(OCCOCCOCCOCCOCCOc2cc(-c3scnc3C)ccc2CNC(=O)[C@@H]2C[C@@H](O)CN2C(=O)[C@@H](NC(=O)C2(C#N)CC2)C(C)(C)C)c1` [CMP108, (2S,2′S,4R,4′R)—N,N′-((((3,6,9,12-tetraoxatetradecane-1,14-diyl)bis(oxy))bis(4-(4-methylthiazol-5-yl)-2,1-phenylene))bis(methylene))bis(1-((S)-2-(1-cyanocyclopropane-1-carboxamido)-3,3-dimethylbutanoyl)-4-hydroxypyrrolidine-2-carboxamide)], in assay [1], the “binding to VCB detected by ITC” value is “data could not be fitted to a binding curve”.

These data come from US11261179B2, “Small molecules” (University of Dundee, priority 2017, dated 2022).
